Source: ChEMBL document CHEMBL1909294, “Translating clinical findings into knowledge in drug safety evaluation--drug induced liver injury prediction system (DILIps)” (PLoS Comput Biol, 2011)

Columns and labels:
Hepatotoxicity [1] = test system: Hepatotoxicity;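 as to HepSE bilirubinemia: bilirubinemia hepatic side effect score drawn from the DILIps training data, a prediction system for drug-induced liver injury; call rule not given here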;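 as to HepSE cholelithiasis: hepatic side effect score for cholelithiasis, drawn from the DILIps training data for predicting drug-induced liver injury; call rule not given here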;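 as to HepSE cirrhosis: cirrhosis hepatic side effect score taken from the DILIps (drug-induced liver injury prediction) training set; call rule not given here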;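 as to HepSE elevated liver function tests: hepatic side effect score for raised liver function tests, as recorded in the DILIps training set used for predicting drug-induced liver injury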;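 as to HepSE hepatomegaly: hepatic side effect score for hepatomegaly, taken from the training set of the DILIps drug-induced liver injury prediction system; call rule not given here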;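 as to HepSE liver function tests abnormal: hepatic side effect score taken from the DILIps (drug-induced liver injury prediction system) training data, here covering abnormal liver function test findings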
Hepatotoxicity [2] = test system: Hepatotoxicity; remark: listed apart in the source;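 as to HepSE bilirubinemia: bilirubinemia hepatic side effect score drawn from the DILIps training data, a prediction system for drug-induced liver injury; call rule not given here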;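 as to HepSE cholelithiasis: hepatic side effect score for cholelithiasis, drawn from the DILIps training data for predicting drug-induced liver injury; call rule not given here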;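 as to HepSE cirrhosis: cirrhosis hepatic side effect score taken from the DILIps (drug-induced liver injury prediction) training set; call rule not given here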;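 as to HepSE elevated liver function tests: hepatic side effect score for raised liver function tests, as recorded in the DILIps training set used for predicting drug-induced liver injury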;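 as to HepSE hepatomegaly: hepatic side effect score for hepatomegaly, taken from the training set of the DILIps drug-induced liver injury prediction system; call rule not given here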;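 as to HepSE liver function tests abnormal: hepatic side effect score taken from the DILIps (drug-induced liver injury prediction system) training data, here covering abnormal liver function test findings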
Hepatotoxicity [3] = test system: Hepatotoxicity; remark: listed apart in the source;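 as to HepSE bilirubinemia: bilirubinemia hepatic side effect score drawn from the DILIps training data, a prediction system for drug-induced liver injury; call rule not given here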;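 as to HepSE cholelithiasis: hepatic side effect score for cholelithiasis, drawn from the DILIps training data for predicting drug-induced liver injury; call rule not given here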;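 as to HepSE cirrhosis: cirrhosis hepatic side effect score taken from the DILIps (drug-induced liver injury prediction) training set; call rule not given here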;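 as to HepSE hepatomegaly: hepatic side effect score for hepatomegaly, taken from the training set of the DILIps drug-induced liver injury prediction system; call rule not given here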;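 as to HepSE liver function tests abnormal: hepatic side effect score taken from the DILIps (drug-induced liver injury prediction system) training data, here covering abnormal liver function test findings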
Hepatotoxicity [4] = test system: Hepatotoxicity; remark: listed apart in the source;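 as to HepSE bilirubinemia: bilirubinemia hepatic side effect score drawn from the DILIps training data, a prediction system for drug-induced liver injury; call rule not given here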;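 as to HepSE cholelithiasis: hepatic side effect score for cholelithiasis, drawn from the DILIps training data for predicting drug-induced liver injury; call rule not given here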;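 as to HepSE cirrhosis: cirrhosis hepatic side effect score taken from the DILIps (drug-induced liver injury prediction) training set; call rule not given here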;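 as to HepSE hepatomegaly: hepatic side effect score for hepatomegaly, taken from the training set of the DILIps drug-induced liver injury prediction system; call rule not given here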;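 as to HepSE liver function tests abnormal: hepatic side effect score taken from the DILIps (drug-induced liver injury prediction system) training data, here covering abnormal liver function test findings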
Hepatotoxicity [5] = test system: Hepatotoxicity; remark: listed apart in the source
Hepatotoxicity [6] = test system: Hepatotoxicity; remark: listed apart in the source
Hepatotoxicity [7] = test system: Hepatotoxicity; remark: listed apart in the source
Hepatotoxicity [8] = test system: Hepatotoxicity; remark: listed apart in the source
Hepatotoxicity [9] = test system: Hepatotoxicity; remark: listed apart in the source
Hepatotoxicity [10] = test system: Hepatotoxicity; remark: listed apart in the source
Hepatotoxicity [11] = test system: Hepatotoxicity; remark: listed apart in the source
Hepatotoxicity [12] = test system: Hepatotoxicity; remark: listed apart in the source
Hepatotoxicity [13] = test system: Hepatotoxicity; remark: listed apart in the source
Hepatotoxicity [14] = test system: Hepatotoxicity; remark: listed apart in the source

Row | SMILES | HepSE_cholelithiasis (Hepatotoxicity [1]) | HepSE_hepatomegaly (Hepatotoxicity [2]) | HepSE_bilirubinemia (Hepatotoxicity [3]) | HepSE_liver fatty (Hepatotoxicity [4]) | HepSE_liver function tests abnormal (Hepatotoxicity [5]) | HepSE_cirrhosis (Hepatotoxicity [6]) | HepSE_hepatic necrosis (Hepatotoxicity [7]) | HepSE_elevated liver function tests (Hepatotoxicity [8]) | HepSE_liver disease (Hepatotoxicity [9]) | HepSE_hepatic failure (Hepatotoxicity [10]) | HepSE_cholecystitis (Hepatotoxicity [11]) | HepSE_hepatitis (Hepatotoxicity [12]) | HepSE_jaundice (Hepatotoxicity [13]) | HepSE_Combined Scores (Hepatotoxicity [14]) | further results
1 | N[C@@H](Cc1cc(I)c(Oc2cc(I)c(O)c(I)c2)c(I)c1)C(=O)O [LEVOTHYROXINE] | 0 | 0 | 0 | 0 | 0 | 0 | 0 | 0 | 0 | 0 | 0 | 0 | 0 | 0 | –
2 | CCC[C@@H]1C[C@@H](C(=O)N[C@@H]([C@H]2O[C@H](SC)[C@H](O)[C@@H](O)[C@H]2O)[C@@H](C)O)N(C)C1 [LINCOMYCIN] | 0 | 0 | 0 | 0 | 1 | 0 | 0 | 0 | 0 | 0 | 0 | 0 | 1 | 2 | –
3 | Cl[C@H]1[C@H](Cl)[C@@H](Cl)[C@@H](Cl)[C@H](Cl)[C@H]1Cl [LINDANE] | – | – | – | – | – | – | – | – | – | – | – | – | – | – | HepSE_cholelithiasis (Hepatotoxicity [1]; Liver): 0; HepSE_hepatomegaly (Hepatotoxicity [2]; Liver): 0; HepSE_bilirubinemia (Hepatotoxicity [3]; Liver): 0; HepSE_liver fatty (Hepatotoxicity [4]; Liver): 0; HepSE_liver function tests abnormal (Hepatotoxicity [5]; Liver): 0; HepSE_cirrhosis (Hepatotoxicity [6]; Liver): 0; HepSE_hepatic necrosis (Hepatotoxicity [7]; Liver): 0; HepSE_elevated liver function tests (Hepatotoxicity [8]; Liver): 0; HepSE_liver disease (Hepatotoxicity [9]; Liver): 0; HepSE_hepatic failure (Hepatotoxicity [10]; Liver): 0; HepSE_cholecystitis (Hepatotoxicity [11]; Liver): 0; HepSE_hepatitis (Hepatotoxicity [12]; Liver): 0; HepSE_jaundice (Hepatotoxicity [13]; Liver): 0; HepSE_Combined Scores (Hepatotoxicity [14]; Liver): 0
4 | CC(=O)NC[C@H]1CN(c2ccc(N3CCOCC3)c(F)c2)C(=O)O1 [LINEZOLID] | 0 | 0 | 0 | 0 | 1 | 0 | 0 | 0 | 0 | 0 | 0 | 0 | 1 | 2 | –
5 | N[C@@H](Cc1cc(I)c(Oc2ccc(O)c(I)c2)c(I)c1)C(=O)O [LIOTHYRONINE] | 0 | 0 | 0 | 0 | 0 | 0 | 0 | 0 | 0 | 0 | 0 | 0 | 0 | 0 | –
6 | NCCCC[C@H](N[C@@H](CCc1ccccc1)C(=O)O)C(=O)N1CCC[C@H]1C(=O)O [LISINOPRIL ANHYDROUS] | 0 | 0 | 0 | 0 | 0 | 0 | 0 | 0 | 0 | 1 | 0 | 1 | 1 | 3 | –
7 | [Li] [LITHIUM] | 0 | 0 | 0 | 0 | 0 | 0 | 0 | 0 | 0 | 0 | 0 | 0 | 0 | 0 | –
8 | N#Cc1cc(NC(=O)C(=O)O)c(Cl)c(NC(=O)C(=O)O)c1 [LODOXAMIDE] | 0 | 0 | 0 | 0 | 0 | 0 | 0 | 0 | 0 | 0 | 0 | 0 | 0 | 0 | –
9 | O=NN(CCCl)C(=O)NC1CCCCC1 [LOMUSTINE] | 0 | 0 | 0 | 0 | 0 | 0 | 0 | 0 | 0 | 0 | 0 | 0 | 0 | 0 | –
